Values of other authors in patent US7638651B2, “Substituted cyclohexanones” (Auspex Pharmaceuticals, priority 2007, dated 2009).

What was measured:
[1] = for half-life: ketamine: depending on the mode of administration

| Structure (SMILES) | potency relative to the R-(−) isomer (more potent than the R-(−) isomer) | blood to plasma ratio ([1]; in vivo) | half-life [1] | potency relative to the parent drug (as potent as the parent drug (ketamine)) |
| --- | --- | --- | --- | --- |
| CN[C@]1(c2ccccc2Cl)CCCCC1=O (single isomer, unassigned) [S-(+) isomer] | approximately four | – | – | – |
| CNC1(c2ccccc2Cl)CCCCC1=O (centres unmarked) [Ketamine] | – | ~0.82 | two to about five | – |
| NC1(c2ccccc2Cl)CCCCC1=O (centres unmarked) [Norketamine, N-desmethylketamine] | – | – | about five | roughly one third |
